Test systems include 786-0; CAKI-1; CCRF-CEM; COLO 205; HOP-62; IGROV-1; LOX IMVI; M14; MOLT-4; NCI-H23; NCI-H522; OVCAR-3; OVCAR-5; RXF 393; SF-295; SK-MEL-28; SNB-75; SW-620; UACC-62; UO-31.
Holding throughout (experiment): growth of human tumour cells (NCI), 48 h

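Grown in 96-well plates, cells were treated for 48 hours with each compound at five concentrations. Insufficient inhibition: endpoint recorded as highest concentration tested. Abbreviation: GI50, concentration required for 50% inhibition of growth.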 The source made the active and inactive calls. No stated cut-off is given here; in the data, active = GI50 up to about 1.1 µM and inactive = higher.

Ten molecules from ChEMBL document CHEMBL1201862, “PubChem BioAssay data set” (2004) can be followed below.

With `Cc1cc(C)c(O)c(Cc2cccc(Cc3cc(C)cc(C)c3O)c2O)c1`, the GI50 in the assay with 786-0 was > 100 µM (inactive); with CAKI-1, > 100 µM (inactive); in the assay on CCRF-CEM, 35.5 µM (inactive); in the assay with COLO 205, > 100 µM (inactive); with HOP-62, > 100 µM (inactive); in the assay on IGROV-1, > 100 µM (inactive). In addition, the GI50 with LOX IMVI, with M14, in the assay on MOLT-4, with NCI-H23, in the assay on NCI-H522 and in the assay with OVCAR-3 was > 100 µM (inactive) in each case. Further, the GI50 in the assay on OVCAR-5, in the assay with RXF 393, with SF-295, with SK-MEL-28, with SNB-75 and in the assay with SW-620 was > 100 µM (inactive) each time. Further, the GI50 in the assay on UACC-62 and in the assay with UO-31 was > 100 µM (inactive) in each case.
As for `NC(=O)c1ccc[n+](C2=C([N-]S(=O)(=O)c3ccccc3)C(=O)c3ccccc3C2=O)c1`, the GI50 with 786-0 was 17.8 µM (inactive); with CAKI-1 it was 22.1 µM (inactive); in the assay with CCRF-CEM, 42.6 µM (inactive); in the assay with COLO 205 it was 12.8 µM (inactive); in the assay on HOP-62, 17.9 µM (inactive); in the assay on IGROV-1, 11.8 µM (inactive). Moreover, the GI50 was 12.9 µM (inactive) in the assay on LOX IMVI; 15.7 µM (inactive) in the assay with M14; 25.2 µM (inactive) in the assay with MOLT-4; 14.9 µM (inactive) with NCI-H23; 10.9 µM (inactive) in the assay on NCI-H522; 5.08 µM (inactive) with OVCAR-3. Besides, the GI50 with OVCAR-5 is 19.1 µM (inactive); with RXF 393, 15.8 µM (inactive); with SF-295, 17.5 µM (inactive); in the assay on SK-MEL-28, 16 µM (inactive); with SNB-75 it was 14.4 µM (inactive); in the assay on SW-620, 16.6 µM (inactive). The figures for the GI50 in the assay with UACC-62 and in the assay with UO-31 were 17.9 µM (inactive) and 14.5 µM (inactive), respectively.
`Cc1nc2cc(/N=N/c3c(O)ccc4ccccc34)ccc2[nH]1`: the GI50 was 22 µM (inactive) in the assay on 786-0; 26.6 µM (inactive) in the assay on CAKI-1; 16.1 µM (inactive) in the assay on CCRF-CEM; 29.5 µM (inactive) in the assay on COLO 205; > 64.7 µM (inactive) in the assay with HOP-62; > 45.3 µM (inactive) in the assay on IGROV-1. Further, the GI50 was 18.5 µM (inactive) in the assay with LOX IMVI; 38.4 µM (inactive) in the assay with M14; 21 µM (inactive) with MOLT-4; > 62.2 µM (inactive) with NCI-H23; 22.8 µM (inactive) in the assay with NCI-H522; 25.2 µM (inactive) with OVCAR-3. The GI50 in the assay with OVCAR-5 was > 75.5 µM (inactive); in the assay on RXF 393, > 42.4 µM (inactive); in the assay with SF-295 it was 41.1 µM (inactive); with SK-MEL-28, 98.6 µM (inactive); in the assay with SNB-75, > 72.1 µM (inactive); in the assay with SW-620, 32.4 µM (inactive). The figures for the GI50 in the assay on UACC-62 and with UO-31 were 46.3 µM (inactive) and 45.1 µM (inactive), respectively.
Take `Cc1cc(C)c2c(c1)CN1CN2Cc2cc(C)cc(C)c21`: the GI50 in the assay on 786-0 was 17.2 µM (inactive); with CAKI-1, 34.1 µM (inactive); in the assay on CCRF-CEM it was 24.6 µM (inactive); with COLO 205 it was 22.1 µM (inactive); with HOP-62 it was 18.7 µM (inactive); in the assay on IGROV-1 it was 23.4 µM (inactive). The GI50 in the assay with LOX IMVI was 17 µM (inactive); in the assay with M14, 18.2 µM (inactive); with MOLT-4, 22.4 µM (inactive); in the assay on NCI-H23, 20.8 µM (inactive); in the assay on NCI-H522 it was 29 µM (inactive); in the assay on OVCAR-3, 14.8 µM (inactive). Besides, the GI50 in the assay with OVCAR-5 was 55.1 µM (inactive); in the assay with RXF 393 it was 6.68 µM (inactive); in the assay on SF-295 it was 18.7 µM (inactive); in the assay on SK-MEL-28, 16.5 µM (inactive); with SNB-75 it was 4.36 µM (inactive); in the assay on SW-620, 31.5 µM (inactive). Also, the GI50 with UACC-62 was 16 µM (inactive); in the assay on UO-31, 24.4 µM (inactive).
Regarding `CC1=C(NC(=O)C(=O)NNC(=O)c2ccncc2)C(=O)c2ccccc2C1=O`, the GI50 in the assay on 786-0 is 18.2 µM (inactive); in the assay with CAKI-1, 22.8 µM (inactive); in the assay on CCRF-CEM, 20 µM (inactive); in the assay with COLO 205 it was 17.3 µM (inactive); in the assay on HOP-62, 17.5 µM (inactive); in the assay with IGROV-1, 12.7 µM (inactive). Moreover, the GI50 with LOX IMVI is 3.66 µM (inactive); in the assay on M14, 9.84 µM (inactive); in the assay on MOLT-4, 20.8 µM (inactive); in the assay with NCI-H23, 6.32 µM (inactive); in the assay on NCI-H522, 12.4 µM (inactive); with OVCAR-3 it was 4.08 µM (inactive). The GI50 in the assay with OVCAR-5 is 17 µM (inactive); with RXF 393, 15.4 µM (inactive); in the assay on SF-295, 10.8 µM (inactive); with SK-MEL-28, 17.3 µM (inactive); in the assay on SNB-75, 17.4 µM (inactive); with SW-620 it was 15.7 µM (inactive). Also, the GI50 in the assay with UACC-62 is 2.52 µM (inactive); with UO-31 it was 18 µM (inactive).
As to `CSC(=S)Nc1cc(C)ccn1`, the GI50 is 75.2 µM (inactive) with 786-0; > 100 µM (inactive) in the assay with CAKI-1; > 100 µM (inactive) with CCRF-CEM; 50.8 µM (inactive) in the assay with COLO 205; > 100 µM (inactive) in the assay on HOP-62; 20.8 µM (inactive) with IGROV-1. Moreover, the GI50 is > 100 µM (inactive) in the assay on LOX IMVI; > 100 µM (inactive) in the assay with M14; > 100 µM (inactive) in the assay on MOLT-4; > 100 µM (inactive) in the assay with NCI-H23; 40.7 µM (inactive) in the assay with NCI-H522; 40.6 µM (inactive) in the assay on OVCAR-3. Moreover, the GI50 in the assay on OVCAR-5 is > 100 µM (inactive); in the assay with RXF 393, > 100 µM (inactive); in the assay on SF-295, 76.7 µM (inactive); with SK-MEL-28 it was > 100 µM (inactive); with SNB-75, 29 µM (inactive); with SW-620, > 100 µM (inactive). The GI50 with UACC-62 and with UO-31 was > 100 µM (inactive) each time.
As for `NC(=O)c1cn(Cc2ccccc2)c(=O)n1Cc1ccccc1`, the GI50 in the assay with 786-0, in the assay on CAKI-1, in the assay with CCRF-CEM, with COLO 205, in the assay with HOP-62 and in the assay on IGROV-1 was > 100 µM (inactive) each time. Moreover, the GI50 with LOX IMVI, in the assay on M14, with MOLT-4, in the assay with NCI-H23, in the assay on NCI-H522 and in the assay with OVCAR-3 was > 100 µM (inactive) in each case. For the same molecule, the GI50 in the assay with OVCAR-5, in the assay on RXF 393, in the assay with SF-295, in the assay on SK-MEL-28, in the assay with SNB-75 and in the assay on SW-620 was > 100 µM (inactive) each time. The GI50 in the assay with UACC-62 and in the assay with UO-31 was > 100 µM (inactive) each time.
In the case of `CC(C)C1=CCC2C(=C1)CCC1C(C)(C(=O)O)CCCC21C` (stereo not given), the GI50 in the assay on 786-0, with CAKI-1, with CCRF-CEM, with COLO 205, with HOP-62 and with IGROV-1 was > 100 µM (inactive) each time. The GI50 with LOX IMVI is > 100 µM (inactive); with M14, > 100 µM (inactive); in the assay with MOLT-4, 63.1 µM (inactive); in the assay on NCI-H23, 81.1 µM (inactive); in the assay with NCI-H522, > 100 µM (inactive); in the assay with OVCAR-3, > 100 µM (inactive). Moreover, the GI50 in the assay on OVCAR-5 was > 100 µM (inactive); in the assay on RXF 393, > 100 µM (inactive); with SF-295, 97.7 µM (inactive); in the assay with SK-MEL-28, > 100 µM (inactive); in the assay on SNB-75 it was > 100 µM (inactive); in the assay with SW-620 it was > 100 µM (inactive). For the same molecule, the GI50 was > 100 µM (inactive) with UACC-62 and 79.1 µM (inactive) in the assay on UO-31.
On to `CC(=O)OC12CC[N+]3(C)CCCCC3C1=Nc1ccccc12` (stereo not given), for which the GI50 with 786-0 is > 100 µM (inactive); with CAKI-1, > 100 µM (inactive); with CCRF-CEM, > 100 µM (inactive); in the assay with COLO 205, 61 µM (inactive); in the assay on HOP-62, > 100 µM (inactive); in the assay with IGROV-1 it was > 100 µM (inactive). Moreover, the GI50 in the assay with LOX IMVI, in the assay on M14, in the assay with MOLT-4, in the assay with NCI-H23, with NCI-H522 and in the assay on OVCAR-3 was > 100 µM (inactive) each time. The GI50 in the assay on OVCAR-5, with RXF 393, in the assay on SF-295, in the assay with SK-MEL-28, in the assay with SNB-75 and in the assay on SW-620 was > 100 µM (inactive) each time. In addition, the GI50 with UACC-62 and in the assay on UO-31 was > 100 µM (inactive) in each case.
Take `CC1=C2C(=CC(C)(CO)C2O)C(=O)C(C)(O)C12CC2` (stereo not given): the GI50 was 0.00337 µM (active) with 786-0; 0.00367 µM (active) in the assay with CAKI-1; 0.00201 µM (active) in the assay on CCRF-CEM; 0.00353 µM (active) with COLO 205; 0.00433 µM (active) with HOP-62; 0.00721 µM (active) with IGROV-1. Further, the GI50 with LOX IMVI was 0.00161 µM (active); in the assay on M14, 0.00327 µM (active); in the assay with MOLT-4, 0.00156 µM (active); in the assay with NCI-H23 it was 0.00203 µM (active); in the assay with NCI-H522 it was 0.000776 µM (active); in the assay with OVCAR-3 it was 0.00493 µM (active). The GI50 in the assay with OVCAR-5 was 0.00673 µM (active); with RXF 393, 0.00163 µM (active); in the assay with SF-295, 0.00115 µM (active); in the assay with SK-MEL-28 it was 0.00425 µM (active); in the assay with SNB-75 it was 0.00395 µM (active); in the assay with SW-620, 0.00142 µM (active). Also, the GI50 was 0.00286 µM (active) in the assay with UACC-62 and 0.00457 µM (active) in the assay on UO-31.
